Data as given in patent US20080039337A1, “Method for Detection of Conformational Change of a Protein Immobilized on a Substrate” (FUENCE CO., LTD., priority 2004, published 2008).

Target: T1, Amyloid β (1-42) (Homo sapiens, UniProt P05067)
T1 construct: Amyloid β (1-42); purchased Bachem AG, Bubendorf, Switzerland (printed 'Bachem A G, Budendorf')
Test: Detection of conformational change to β-sheet structure of amyloid β (1-42) film immobilized on a substrate, by fluorescent dye binding
Type: biochemical
Details: film immersed into 1 mM ZnCl2 in 10 mM Hepes pH 7.4, 0.15 M NaCl for 10 minutes; dye 1-fluoro-2,5-bis(3-carboxy-4-hyrdoxystyryl)benzene; compared with buffer only and with EDTA after ZnCl2
Method: Amyloid β (1-42) (Bachem A G, Budendorf, Switzerland) was dissolved in 0.1% ammonia water at the concentration of 1 mg/mL. This solution was sprayed under dry air using an electrospry device described in WO 2002-511792 or an immobilzing device described in Japanese Patent Publication No. 2003-136005. The solution was permeated through a mask with holes of 400 μm in length and 800 μm in width, and then a film having 1 μm thickness was prepared using an electrospray method (the EDS method), then protein was cross-linked at 30° C. for 5 minutes by glutaraldehyde.
The resulting film was immersed into 10 mM Hepes pH 7.4 buffer solution (hereinafter referred to as “the buffer solution”) containing 0.15 M NaCl for 10 minutes, in the presence or absence of ZnCl2, except that the EDTA sample was only reacted with 1 mM ZnCl2 and then immersed in a buffer solution containing 1 mM EDTA for 10 minutes. After that the film was immersed into a solution of 1-fluoro-2,5-bis(3-carboxy-4-hyrdoxystyryl)benzene (Dojindo Chemical Laboratory Co., Kumamoto) that binds to β-sheet structure, prepared to the final concentration of 0.01% using 50% ethanol solution. Furthermore, the film was immersed into a solution of saturated lithium carbonate, then it was lightly washed by 50% ethanol, then dried and observed under fluorescent microscope. […]

T1 sequence (P05067 672-713): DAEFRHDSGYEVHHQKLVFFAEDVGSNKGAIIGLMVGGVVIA

fluorescent intensity of the film (relative intensity), indicating change of amyloid β to β sheet structure: the highest
Compound: [Cl-].[Cl-].[Zn+2] [ZnCl2]
